Results taken from PubChem BioAssay AID1259407 (Chemical Carcinogenesis Research Information System (CCRIS), 2018).
The source made the active and inactive calls. How the calls were made is not given here.

System: CCRIS mutagenicity, Ames/micronucleus/aberration tests
Experiment: CCRIS mutagenicity studies
[1] = Test System: AMES SALMONELLA TYPHIMURIUM, Strain/Indicator: TA98, Metabolic Activation: NONE, Method: PREINCUBATION
[2] = Test System: AMES SALMONELLA TYPHIMURIUM, Strain/Indicator: TA98, Metabolic Activation: RAT, LIVER, S-9, AROCLOR 1254, Method: STANDARD PLATE
[3] = Test System: AMES SALMONELLA TYPHIMURIUM, Strain/Indicator: TA100, Metabolic Activation: NONE, Method: PREINCUBATION
[4] = Test System: AMES SALMONELLA TYPHIMURIUM, Strain/Indicator: TA100, Metabolic Activation: RAT, LIVER, S-9, AROCLOR 1254, Method: STANDARD PLATE
[5] = Test System: AMES SALMONELLA TYPHIMURIUM, Strain/Indicator: TA98, Metabolic Activation: NONE, Method: STANDARD PLATE
[6] = Test System: AMES SALMONELLA TYPHIMURIUM, Strain/Indicator: TA100, Metabolic Activation: NONE, Method: STANDARD PLATE
[7] = Test System: AMES SALMONELLA TYPHIMURIUM, Strain/Indicator: TA1535, Metabolic Activation: NONE, Method: STANDARD PLATE
[8] = Test System: AMES SALMONELLA TYPHIMURIUM, Strain/Indicator: TA1535, Metabolic Activation: RAT, LIVER, S-9, AROCLOR 1254, Method: STANDARD PLATE

Compound: Cc1ccc2nc3c(ccc4ccccc43)c(C)c2c1
- mutagenic call (Test System: AMES SALMONELLA TYPHIMURIUM, Strain/Indicator: TA97A, Metabolic Activation: NONE, Method: PREINCUBATION): inactive; negative
- mutagenic call [1]: inactive; negative
- mutagenic call [2]: active; positive
- mutagenic call [3]: inactive; negative
- mutagenic call [4]: active; positive
- mutagenic call (Test System: AMES SALMONELLA TYPHIMURIUM, Strain/Indicator: TA102, Metabolic Activation: NONE, Method: PREINCUBATION): active; positive
- mutagenic call (Test System: E. COLI, Strain/Indicator: WP2 UVRA, Metabolic Activation: HAMSTER, LIVER, S-9, AROCLOR 1254, Method: STANDARD PLATE): inactive; negative
- mutagenic call (Test System: E. COLI, Strain/Indicator: WP2 UVRA, Metabolic Activation: HAMSTER, LIVER, S-9, Method: STANDARD PLATE): inactive; negative
- mutagenic call (Test System: E. COLI, Strain/Indicator: WP2 UVRA, Metabolic Activation: MOUSE, LIVER, S-9, AROCLOR 1254, Method: STANDARD PLATE): inactive; negative
- mutagenic call (Test System: E. COLI, Strain/Indicator: WP2 UVRA, Metabolic Activation: MOUSE, LIVER, S-9, Method: STANDARD PLATE): inactive; negative
- mutagenic call (Test System: E. COLI, Strain/Indicator: WP2 UVRA, Metabolic Activation: NONE, Method: STANDARD PLATE): inactive; negative
- mutagenic call (Test System: E. COLI, Strain/Indicator: WP2 UVRA, Metabolic Activation: RAT, LIVER, S-9, AROCLOR 1254, Method: STANDARD PLATE): inactive; negative
- mutagenic call (Test System: E. COLI, Strain/Indicator: WP2 UVRA, Metabolic Activation: RAT, LIVER, S-9, Method: STANDARD PLATE): inactive; negative

Compound: CC(C)(C)OC(=O)O/N=C(/C#N)c1ccccc1
- mutagenic call [5]: inactive; negative
- mutagenic call [2]: inactive; negative
- mutagenic call [6]: inactive; negative
- mutagenic call [4]: inactive; negative
- mutagenic call [7]: inactive; negative
- mutagenic call [8]: inactive; negative
- mutagenic call (Test System: AMES SALMONELLA TYPHIMURIUM, Strain/Indicator: TA1537, Metabolic Activation: NONE, Method: STANDARD PLATE): inactive; negative
- mutagenic call (Test System: AMES SALMONELLA TYPHIMURIUM, Strain/Indicator: TA1537, Metabolic Activation: RAT, LIVER, S-9, AROCLOR 1254, Method: STANDARD PLATE): inactive; negative

Compound: Cn1c(N)nc2cc(O)ccc21
- mutagenic call (Test System: AMES SALMONELLA TYPHIMURIUM, Strain/Indicator: TA98, Metabolic Activation: RAT, LIVER, S-9, AROCLOR 1254, Method: PREINCUBATION): inactive; negative
- mutagenic call (Test System: AMES SALMONELLA TYPHIMURIUM, Strain/Indicator: TA100, Metabolic Activation: RAT, LIVER, S-9, AROCLOR 1254, Method: PREINCUBATION): inactive; negative

Compound: CCCCCCCCC
- mutagenic call (Test System: AMES SALMONELLA TYPHIMURIUM, Strain/Indicator: TA97, Metabolic Activation: HAMSTER, LIVER, S-9, AROCLOR 1254 (10 OR 30%), Method: PREINCUBATION): inactive; negative
- mutagenic call (Test System: AMES SALMONELLA TYPHIMURIUM, Strain/Indicator: TA97, Metabolic Activation: NONE, Method: PREINCUBATION): inactive; negative
- mutagenic call (Test System: AMES SALMONELLA TYPHIMURIUM, Strain/Indicator: TA97, Metabolic Activation: RAT, LIVER, S-9, AROCLOR 1254 (10 OR 30%), Method: PREINCUBATION): inactive; negative
- mutagenic call (Test System: AMES SALMONELLA TYPHIMURIUM, Strain/Indicator: TA98, Metabolic Activation: HAMSTER, LIVER, S-9, AROCLOR 1254 (10 OR 30%), Method: PREINCUBATION): inactive; negative
- mutagenic call [1]: inactive; negative
- mutagenic call (Test System: AMES SALMONELLA TYPHIMURIUM, Strain/Indicator: TA98, Metabolic Activation: RAT, LIVER, S-9, AROCLOR 1254 (10 OR 30%), Method: PREINCUBATION): inactive; negative
- mutagenic call (Test System: AMES SALMONELLA TYPHIMURIUM, Strain/Indicator: TA100, Metabolic Activation: HAMSTER, LIVER, S-9, AROCLOR 1254 (10 OR 30%), Method: PREINCUBATION): inactive; negative
- mutagenic call [3]: inactive; negative
- mutagenic call (Test System: AMES SALMONELLA TYPHIMURIUM, Strain/Indicator: TA100, Metabolic Activation: RAT, LIVER, S-9, AROCLOR 1254 (10 OR 30%), Method: PREINCUBATION): inactive; negative
- mutagenic call (Test System: AMES SALMONELLA TYPHIMURIUM, Strain/Indicator: TA1535, Metabolic Activation: HAMSTER, LIVER, S-9, AROCLOR 1254 (10 OR 30%), Method: PREINCUBATION): inactive; negative
- mutagenic call (Test System: AMES SALMONELLA TYPHIMURIUM, Strain/Indicator: TA1535, Metabolic Activation: NONE, Method: PREINCUBATION): inactive; negative
- mutagenic call (Test System: AMES SALMONELLA TYPHIMURIUM, Strain/Indicator: TA1535, Metabolic Activation: RAT, LIVER, S-9, AROCLOR 1254 (10 OR 30%), Method: PREINCUBATION): inactive; negative
- mutagenic call (Test System: AMES SALMONELLA TYPHIMURIUM, Strain/Indicator: TA1537, Metabolic Activation: HAMSTER, LIVER, S-9, AROCLOR 1254 (30%), Method: PREINCUBATION): inactive; negative
- mutagenic call (Test System: AMES SALMONELLA TYPHIMURIUM, Strain/Indicator: TA1537, Metabolic Activation: NONE, Method: PREINCUBATION): inactive; negative
- mutagenic call (Test System: AMES SALMONELLA TYPHIMURIUM, Strain/Indicator: TA1537, Metabolic Activation: RAT, LIVER, S-9, AROCLOR 1254 (30%), Method: PREINCUBATION): inactive; negative

Compound: COc1cc(O)c2c(=O)c3cc(OC)ccc3oc2c1
- mutagenic call (Test System: AMES SALMONELLA TYPHIMURIUM, Strain/Indicator: TA97, Metabolic Activation: RAT, LIVER, S-9, PHENOBARBITAL AND 5,6-BENZOFLAVONE, Method: PREINCUBATION): active; positive
- mutagenic call (Test System: AMES SALMONELLA TYPHIMURIUM, Strain/Indicator: TA98, Metabolic Activation: RAT, LIVER, S-9, PHENOBARBITAL AND 5,6-BENZOFLAVONE, Method: PREINCUBATION): inactive; negative
- mutagenic call (Test System: AMES SALMONELLA TYPHIMURIUM, Strain/Indicator: TA100, Metabolic Activation: RAT, LIVER, S-9, PHENOBARBITAL AND 5,6-BENZOFLAVONE, Method: PREINCUBATION): active; positive
- mutagenic call (Test System: AMES SALMONELLA TYPHIMURIUM, Strain/Indicator: TA2637, Metabolic Activation: RAT, LIVER, S-9, PHENOBARBITAL AND 5,6-BENZOFLAVONE, Method: PREINCUBATION): active; positive

Compound: OC1c2cccc3ccc4cccc1c4c23
- mutagenic call (Test System: AMES SALMONELLA TYPHIMURIUM, Strain/Indicator: TA98, Metabolic Activation: HUMAN, LIVER, CYTOSOL, PAPS, Method: PREINCUBATION): inactive; negative

Compound: Clc1ccc(C(Cl)(Cl)Cl)c(Cl)c1
- mutagenic call (Test System: AMES SALMONELLA TYPHIMURIUM, Strain/Indicator: TA98, Metabolic Activation: HAMSTER, LIVER, S-9, AROCLOR 1254 (30%), Method: PREINCUBATION): active; positive
- mutagenic call [1]: inactive; negative
- mutagenic call (Test System: AMES SALMONELLA TYPHIMURIUM, Strain/Indicator: TA98, Metabolic Activation: RAT, LIVER, S-9, AROCLOR 1254 (30%), Method: PREINCUBATION): active; positive
- mutagenic call (Test System: AMES SALMONELLA TYPHIMURIUM, Strain/Indicator: TA100, Metabolic Activation: HAMSTER, LIVER, S-9, AROCLOR 1254 (30%), Method: PREINCUBATION): active; positive
- mutagenic call [3]: inactive; negative
- mutagenic call (Test System: AMES SALMONELLA TYPHIMURIUM, Strain/Indicator: TA100, Metabolic Activation: RAT, LIVER, S-9, AROCLOR 1254 (30%), Method: PREINCUBATION): active; positive

Compound: O=C(O)COc1ccc2ccccc2c1
- mutagenic call (Test System: AMES SALMONELLA TYPHIMURIUM, Strain/Indicator: TA97, Metabolic Activation: NONE, Method: STANDARD PLATE): inactive; negative
- mutagenic call (Test System: AMES SALMONELLA TYPHIMURIUM, Strain/Indicator: TA97, Metabolic Activation: RAT, LIVER, S-9, AROCLOR 1254, Method: STANDARD PLATE): inactive; negative
- mutagenic call [5]: inactive; negative
- mutagenic call [2]: inactive; negative
- mutagenic call [6]: inactive; negative
- mutagenic call [4]: inactive; negative
- mutagenic call [7]: inactive; negative
- mutagenic call [8]: inactive; negative
